Assay results: US10696693B2, “Fused imidazole derivatives as TGF-beta inhibitors” (Rigel Pharmaceuticals, Inc., priority 2014, dated 2020)
Like-named read-outs stand apart in the source and are kept apart here.

Tests used:
GDF8 = assay: AlphaScreen SureFire p-SMAD3 (Ser423/425) assay, GDF8-stimulated cells; format: cell-based; details: Mus musculus
Summary of the method: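 Lysate (5 μL) went into 384-well shallow plates with 5 μL of Reaction Buffer, Activation Buffer and AlphaScreen Acceptor bead mix. Plates were sealed, kept dark and shaken for 2 hours at room temperature. Donor beads in dilution buffer (2 μL) were added for another 1½ hours, and p-SMAD3 signal was read on a Synergy-4 or Enspire reader.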

TGF-β = assay: AlphaScreen SureFire p-SMAD3 (Ser423/425) assay, TGF-β-stimulated cells; format: cell-based; details: Mus musculus
Summary of the method: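 The p-SMAD-3 (Ser423/425) SureFire assay measured phosphorylation of endogenous SMAD-3 in cell lysates. Cells were plated overnight in collagen-coated plates, exposed to three-fold serially diluted compounds for about 10 minutes, then stimulated with TGFβ. Lysates (5 μL) received acceptor bead mix for 2 hours, then donor beads for 1½ hours before AlphaScreen reading.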

[1] = MPC-11, p-SMAD3 (Ser423/425) AlphaScreen in cell lysate, MPC11, GDF8 stimulation, read-out: GDF8: inhibition of GDF8 signaling, GDF pSMAD (MPC11)
[2] = p-SMAD3 (Ser423/425) AlphaScreen in cell lysate, MPC-11, TGF-β stimulation, read-out: TGF-β: inhibition of TGF-β signaling, TGF-β pSMAD (MPC-11)
[3] = MPC-11, read-out: GDF8: inhibition of GDF8 signaling, GDF pSMAD (MPC11), p-SMAD3 (Ser423/425) AlphaScreen in cell lysate, GDF8 stimulation
[4] = MPC-11, read-out: TGF-β: inhibition of TGF-β signaling, TGF-β pSMAD (MPC-11), p-SMAD3 (Ser423/425) AlphaScreen in cell lysate, TGF-β stimulation

| IC50 (GDF8; [1]) [nM] | IC50 (TGF-β; [2]) [nM] | SMILES | IC50 (GDF8; [3]) [nM] | IC50 (TGF-β; [4]) [nM] |
| --- | --- | --- | --- | --- |
| < 50 | 50 to 100 | Fc1cc(F)c(-c2nc3occn3c2-c2ccc3nccn3c2)cc1F [Compound 148, 6-(2,4,5-trifluorophenyl)-5-(imidazo[1,2-a]pyridin-6-yl)imidazo[2,1-b]oxazole] |  |  |
|  |  | Cc1c(F)ccc(-c2nc3n(c2-c2ccc4nccnc4c2)CCC3)c1C [Compound 330, 6-(2-(4-fluoro-2,3-dimethylphenyl)-6,7-dihydro-5H-pyrrolo[1,2-a]imidazol-3-yl)quinoxaline] | > 1000 | > 1000 |
|  |  | Cc1cc(F)c(-c2nc3n(c2-c2ccc4[nH]ncc4c2)CCC3)cc1F [Compound 284, 5-(2-(2,5-difluoro-4-methylphenyl)-6,7-dihydro-5H-pyrrolo[1,2-a]imidazol-3-yl)-1H-indazole] | > 1000 | > 1000 |
|  |  | Cc1ccc(-c2ccc3nccnc3c2)cc1-c1nc2n(c1-c1ccc3nccnc3c1)CCC2 [Compound 341, 6-(4-methyl-3-(3-(quinoxalin-6-yl)-6,7-dihydro-5H-pyrrolo[1,2-a]imidazol-2-yl)phenyl)quinoxaline] | > 1000 | > 1000 |
|  |  | COCCOc1cnc2ccc(-c3c(-c4cc(F)cc(F)c4F)nc4n3CCN4)cc2n1 [Compound 117, 2-(2-methoxyethoxy)-7-(2-(2,3,5-trifluorophenyl)-5,6-dihydro-7λ^2-imidazo[3,2-a]imidazol-3-yl)quinoxaline] | 100 to 1000 | > 1000 |
| 50 to 100 | 100 to 1000 | Cc1ccc(F)c(-c2nc3n(c2-c2ccc4ncccc4c2)CCC3)c1 [Compound 356, 6-(2-(2-fluoro-5-methylphenyl)-6,7-dihydro-5H-pyrrolo[1,2-a]imidazol-3-yl)quinoline] |  |  |
| > 1000 | > 1000 | [N-]=[N+]=NCC1CCC2(CC1)Cc1nc(-c3ccc(F)cc3)c(-c3ccc4ncnn4c3)n1C2 (stereo not drawn) [Compound 85, 3′-([1,2,4]triazolo[1,5-a]pyridin-6-yl)-4-(azidomethyl)-2′-(4-fluorophenyl)-5′H,7′H-spiro[cyclohexane-1,6′-pyrrolo[1,2-a]imidazole]] |  |  |
| 100 to 1000 | 100 to 1000 | Fc1ccc(-c2nc3n(c2-c2ccc4[nH]ncc4c2)CCC3)cc1F [Compound 205, 5-(2-(3,4-difluorophenyl)-6,7-dihydro-5H-pyrrolo[1,2-a]imidazol-3-yl)-1H-indazole] |  |  |
| 100 to 1000 | 100 to 1000 | Fc1cc(F)c(F)c(-c2nc3n(c2-c2cc4cnccc4s2)CCC3)c1 [Compound 98, 2-(2-(2,3,5-trifluorophenyl)-6,7-dihydro-5H-pyrrolo[1,2-a]imidazol-3-yl)thieno[3,2-c]pyridine] |  |  |
| 50 to 100 | 100 to 1000 | Fc1ccc(-c2nc3occn3c2-c2ccc3nccn3c2)c(F)c1F [Compound 163, 5-(imidazo[1,2-a]pyridin-6-yl)-6-(2,3,4-trifluorophenyl)imidazo[2,1-b]oxazole] |  |  |
| < 50 | < 50 | Fc1ccc(-c2nc3occn3c2-c2ccc3ncsc3c2)cc1 [Compound 127, 5-(benzo[d]thiazol-6-yl)-6-(4-fluorophenyl)imidazo[2,1-b]oxazole] |  |  |
| 100 to 1000 | 100 to 1000 | Cc1c(F)ccc(-c2nc3n(c2-c2ccc4ncnn4c2)CCC3)c1F [Compound 45, 6-(2-(2,4-difluoro-3-methylphenyl)-6,7-dihydro-5H-pyrrolo[1,2-a]imidazol-3-yl)-[1,2,4]triazolo[1,5-a]pyridine] |  |  |
| < 50 | < 50 | Cc1cccc(-c2nc3occn3c2-c2ccc3nccn3c2)c1 [Compound 143, 6-(m-tolyl)-5-(imidazo[1,2-a]pyridin-6-yl)imidazo[2,1-b]oxazole] |  |  |
| 50 to 100 | 100 to 1000 | Fc1cc(F)c(-c2nc3n(c2-c2cc4cnccc4s2)CCC3)cc1F [Compound 99, 2-(2-(2,4,5-trifluorophenyl)-6,7-dihydro-5H-pyrrolo[1,2-a]imidazol-3-yl)thieno[3,2-c]pyridine] |  |  |
| < 50 | < 50 | Fc1cc(F)c(-c2nc3n(c2-c2ccc4nccnc4c2)CCN3)cc1F [Compound 106, 6-(6-(2,4,5-trifluorophenyl)-2,3-dihydro-1H-imidazo[1,2-a]imidazol-5-yl)quinoxaline] |  |  |
| < 50 | < 50 | O=C(O)C1Cn2c(nc(-c3cc(F)cc(F)c3F)c2-c2ccc3ncnn3c2)N1 (stereo not drawn) [Compound 118, 5-([1,2,4]triazolo[1,5-a]pyridin-6-yl)-6-(2,3,5-trifluorophenyl)-2,3-dihydro-1H-imidazo[1,2-a]imidazole-2-carboxylic acid] |  |  |
| 50 to 100 | 100 to 1000 | Cc1cccc(-c2nc3n(c2-c2ccc4nccn4c2)CCC3)c1 [Compound 1, 6-(2-(m-tolyl)-6,7-dihydro-5H-pyrrolo[1,2-a]imidazol-3-yl)imidazo[1,2-c]pyridine] |  |  |
| > 1000 | > 1000 | Fc1cc(-c2nc3n(c2-c2ccc4nnc(C(F)(F)F)n4c2)CCC3)cc(F)c1F [Compound 33, 3-(trifluoromethyl)-6-(2-(3,4,5-trifluorophenyl)-6,7-dihydro-5H-pyrrolo[1,2-c]imidazol-3-yl)-[1,2,4]triazolo[4,3-c]pyridine] |  |  |
| > 1000 | > 1000 | Cc1cc(-c2nc3n(c2-c2ccc4nccnc4c2)CCC3)c(F)cc1Cl [Compound 254, 6-(2-(4-chloro-2-fluoro-5-methylpheny)-6,7-dihydro-5H-pyrrolo[1,2-a]imidazol-3-yl)quinoxaline] |  |  |
| 50 to 100 | 50 to 100 | Fc1ccc(-c2nc3occn3c2-c2ccc3[nH]ncc3c2)cc1F [Compound 133, 6-(3,4-difluorophenyl)-5-(1H-indazol-5-yl)imidazo[2,1-b]oxazole] |  |  |
| < 50 | < 50 | Cc1ccc(F)c(-c2nc3n(c2-c2ccc4ncnn4c2)CCC3)c1 [Compound 96, 6-(2-(2-fluoro-5-methylphenyl)-6,7-dihydro-5H-pyrrolo[1,2-a]imidazol-3-yl)-[1,2,4]triazolo[1,5-a]pyridine] |  |  |
| < 50 | 50 to 100 | Fc1ccc(-c2nc3occn3c2-c2ccc3ncccc3c2)c(F)c1 [Compound 158, 5-(quinolin-6-yl)-6-(2,4-difluorophenyl)imidazo[2,1-b]oxazole] |  |  |
| > 1000 | > 1000 | Cc1cc(-c2nc3n(c2-c2ccc4ncnn4c2)CCC3)c(F)cc1Cl [Compound 28, 6-(2-(4-chloro-2-fluoro-5-methylphenyl)-6,7-dihydro-5H-pyrrolo[1,2-c]imidazol-3-yl)-[1,2,4]triazolo[1,5-c]pyridine] |  |  |
|  |  | COc1ccc(-c2nc3n(c2-c2ccc4nccnc4c2)CCC3)cc1 [Compound 351, 6-(2-(4-methoxyphenyl)-6,7-dihydro-5H-pyrrolo[1,2-a]imidazol-3-yl)quinoxaline] | > 1000 | > 1000 |
| > 1000 | > 1000 | Fc1ccc(-c2nc3occn3c2I)cc1F [Compound 132, 6-(3,4-difluorophenyl)-5-iodoimidazo[2,1-b]oxazole] |  |  |
| < 50 | 50 to 100 | Fc1ccc(Cl)cc1-c1nc2n(c1-c1cc3cnccc3s1)CCC2 [Compound 102, 2-(2-(5-chloro-2-fluorophenyl)-6,7-dihydro-5H-pyrrolo[1,2-a]imidazol-3-yl)thieno[3,2-c]pyridine] |  |  |
| 50 to 100 | 100 to 1000 | Fc1ccc(-c2nc3occn3c2-c2ccc3ncccc3c2)cc1F [Compound 145, 5-(quinolin-6-yl)-6-(3,4-difluorophenyl)imidazo[2,1-b]oxazole] |  |  |
